Test results: PubChem BioAssay AID1963854 (Molecular Pharmacology Branch, DTP, NCI, 2024)
Where “and” joins values, the source holds several entries; their conditions need not be identical. Identical values can stand only once.

System: 186277-243-T-J2-PDC complex spheroid viability
Assay: Anticancer human tumor 186277-243-T-J2-PDC patient-derived colon adenocarcinoma cell line growth inhibition [POLQ]
Settings: for viability, T/C: stronger effect = lower value
Protocol: Multicellular complex tumor spheroid response to Polymerase (POL) inhibitors (novobiocin, ART-558, RP6685) in combination with a variety of drugs and investigational agents in selected tumor cell lines
The POL inhibitors (novobiocin, ART-558, and RP6685) were evaluated both individually and in combination with standard of care and investigational anticancer small molecules within a complex spheroid model of solid tumors. . Complex spheroids include a stromal component modeled by human endothelial cells (HUVEC) and fibroblasts modeled by human mesenchymal stem cells (MSCs). The concentration ranges selected for each drug and investigational agent were based upon clinically achievable concentrations if the clinical Cmax of the agent was known.
Compounds. The drugs and investigational agents: novobiocin (NSC847541), ART-558 (NSC835418), RP-6685 (NSC848927), peposertib (NSC802822), ceralasertib (NSC780249), elimusertib (NSC800525), camonsertib (NSC841442), AZD-1390 (NSC803789), olaparib (NSC753686), talazoparib (NSC767125), rucaparib (NSC756644), sotorasib (NSC818433), MRTX-1133 (NSC836407), SN-38 (NSC673596), topotecan (NSC609699), epotoside (NSC141540), doxorubicin (NSC123127), gemcitabine (NSC613327), 5-fluorouracil (NSC19893), paclitaxel (NSC125973), vemurafenib (NSC761431), MSA-2 (NSC828583), SN-011 (NSC837082), adavosertib (NSC754352), prexasertib (NSC758257), carboplatin (NSC241240) and oxaliplatin (NSC266046), were obtained from the National Cancer Institute (NCI) Developmental Therapeutics Program Chemical Repository (21). The FDA-approved anticancer drug set is available from the Developmental Therapeutics Program at https://dtp.cancer.gov/organization/dscb/obtaining/. […] The stock solutions were prepared in dimethyl sulfoxide (DMSO, Sigma-Aldrich, St. Louis, MO, cat. D2650), except for the platinum compounds which were prepared in saline (Quality Biological, Gaithersburg, MD, cat. 114-055-101), at 800-fold the tested concentration and stored at -70 degrees C prior to their use. All drugs and investigational agents were tested over a range starting from a high concentration at or near the clinical Cmax and decreasing in half-log increments. If the clinical Cmax for an agent had not been determined, the highest concentration tested was 10 microM, except for SN-38, which was tested at a high concentration of 1 microM.
Cell Culture. All cells were maintained in an incubator at 37 degrees C and 5% CO2 with 95% humidity. The PDC lines were cultured according to standard operating procedures established by the NCI PDMR (https://pdmr.cancer.gov). Table 3 of the manuscript, lists the cell lines along with the number of the three cell types plated to form the mct-spheroids and media for tumor cell growth. After thawing, all PDC lines, except 997537-175-T-J1-PDC and 415267-285-R-J2-PDC, were cultured in Matrigel-coated flasks prepared with a working solution of 1X Ham's F-12 nutrient mix, without supplementation (Thermo Fisher Scientific, cat. 11765054), 100 U/mL penicillin-streptomycin (Thermo Fisher Scientific, cat. 15140122), and 2.5% Matrigel (Corning Inc., Corning, NY, cat. 354248) for the first three passages. The two PDC lines 997537-175-T-J1-PDC and 415267-285-R-J2-PDC were cultured on uncoated flasks. The 857933-349-R-J2-PDC line was cultured in 6C/Colon 1B media containing advanced DMEM/F-12 (Thermo Fisher Scientific, cat. 12634028), 10 mM HEPES (Thermo Fisher Scientific, cat. 15630080), 1X GlutaMAX supplement (Thermo Fisher Scientific, cat. 35050061), 0.1 mg/mL primocin (InvivoGen, San Diego, CA, cat. ant-pm-2), 10% defined fetal bovine serum, heat inactivated (HyClone Laboratories Inc., Logan, UT, cat. SH30070.03HI), 50% L-WRN conditioned media (ATCC, cat. CRL-3276), 1.25 mM N-Acetyl-L-cysteine (Sigma-Aldrich, cat. A9165), 10 mM nicotinamide (Sigma-Aldrich, cat. N0636), 1X B-27 supplement (Thermo Fisher Scientific, cat. 17504044), 1X N-2 supplement (Thermo Fisher Scientific, cat. […]
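Also: spheroids exposed to compounds for seven days.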
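For viability, T/C in this document: 100% = DMSO vehicle control viability.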

With `CC1COCCN1c1cc(C2(O)CC3CCC(C2)O3)c2cnn(-c3ccn[nH]3)c2n1` (stereo not drawn) the viability, T/C (compound 0.0316 µM) was 62.7% and 62.5% and 102%, the viability, T/C (compound 0.1 µM) was 11% and 9.46% and 22.4% and the viability, T/C (compound 0.316 µM) was 5.2% and 4.15% and 9.01%. The viability, T/C (compound 1 µM) was 4.03% and 3.64% and 7.13%, the viability, T/C (compound 3.16 µM) was 4.12% and 3.11% and 9.4% and the viability, T/C (compound 10 µM) was 4.18% and 3.19% and 7.62%. The IC50 (curve of compound) was 0.0419 µM and 0.0414 µM and 0.0672 µM.

With `Nc1ccc(C#CCN(C(=O)Cc2ncc(C(F)(F)F)cc2C(F)(F)F)c2ccc(F)cc2)nn1` the viability, T/C (compound 0.0316 µM) was 103% [middle of 13 runs], the viability, T/C (compound 0.1 µM) was 102% [middle of 13 runs] and the viability, T/C (compound 0.316 µM) was 98.7% [middle of 13 runs]. For the same compound, the viability, T/C (compound 1 µM) was 101% [middle of 13 runs], the viability, T/C (compound 3.16 µM) was 94.9% [middle of 13 runs] and the IC50 (compound alone, run of 11/06/2023) was greater than 10 µM.

`CC(C)n1c(=O)n(C)c2cnc3cc(F)c(-c4ccc(OCCCN5CCCCC5)nc4)cc3c21` + Nc1ccc(C#CCN(C(=O)Cc2ncc(C(F)(F)F)cc2C(F)(F)F)c2ccc(F)cc2)nn1 was tested, and the IC50 (curve of first compound, second compound 0.0316 µM) was greater than 10 µM, the IC50 (curve of first compound, second compound 0.1 µM) was greater than 10 µM and the IC50 (curve of first compound, second compound 0.316 µM) was greater than 10 µM. The IC50 (curve of first compound, second compound 1 µM) was greater than 10 µM, the IC50 (curve of first compound, second compound 3.16 µM) was greater than 10 µM and the IC50 (curve of first compound, second compound 10 µM) was greater than 10 µM. It also gave a viability, T/C (second compound 0.0316 µM, first compound 0.0316 µM) of 92.8%, a viability, T/C (second compound 0.0316 µM, first compound 0.1 µM) of 94% and a viability, T/C (second compound 0.0316 µM, first compound 0.316 µM) of 98.2%. The viability, T/C (second compound 0.0316 µM, first compound 1 µM) was 95.6%, the viability, T/C (second compound 0.0316 µM, first compound 3.16 µM) was 105% and the viability, T/C (second compound 0.0316 µM, first compound 10 µM) was 108%. It also gave a viability, T/C (second compound 0.1 µM, first compound 0.0316 µM) of 95.3%, a viability, T/C (second compound 0.1 µM, first compound 0.1 µM) of 112% and a viability, T/C (second compound 0.1 µM, first compound 0.316 µM) of 104%. For the same compound, the viability, T/C (second compound 0.1 µM, first compound 1 µM) was 102%, the viability, T/C (second compound 0.1 µM, first compound 3.16 µM) was 98.2% and the viability, T/C (second compound 0.1 µM, first compound 10 µM) was 105%. It also gave a viability, T/C (second compound 0.316 µM, first compound 0.0316 µM) of 92.7%, a viability, T/C (second compound 0.316 µM, first compound 0.1 µM) of 90.4% and a viability, T/C (second compound 0.316 µM, first compound 0.316 µM) of 127%. It also gave a viability, T/C (second compound 0.316 µM, first compound 1 µM) of 102%, a viability, T/C (second compound 0.316 µM, first compound 3.16 µM) of 114% and a viability, T/C (second compound 0.316 µM, first compound 10 µM) of 109%. For the same compound, the viability, T/C (second compound 1 µM, first compound 0.0316 µM) was 98.8%, the viability, T/C (second compound 1 µM, first compound 0.1 µM) was 112% and the viability, T/C (second compound 1 µM, first compound 0.316 µM) was 114%. The viability, T/C (second compound 1 µM, first compound 1 µM) was 99.1%, the viability, T/C (second compound 1 µM, first compound 3.16 µM) was 113% and the viability, T/C (second compound 1 µM, first compound 10 µM) was 113%. It also gave a viability, T/C (second compound 3.16 µM, first compound 0.0316 µM) of 91.7%, a viability, T/C (second compound 3.16 µM, first compound 0.1 µM) of 98.3% and a viability, T/C (second compound 3.16 µM, first compound 0.316 µM) of 109%. The viability, T/C (second compound 3.16 µM, first compound 1 µM) was 102%, the viability, T/C (second compound 3.16 µM, first compound 3.16 µM) was 119% and the viability, T/C (second compound 3.16 µM, first compound 10 µM) was 105%. It also gave a viability, T/C (second compound 10 µM, first compound 0.0316 µM) of 85.7%, a viability, T/C (second compound 10 µM, first compound 0.1 µM) of 95.4% and a viability, T/C (second compound 10 µM, first compound 0.316 µM) of 98.7%. The viability, T/C (second compound 10 µM, first compound 1 µM) was 91.8%, the viability, T/C (second compound 10 µM, first compound 3.16 µM) was 105% and the viability, T/C (second compound 10 µM, first compound 10 µM) was 102%.

With `CCCS(=O)(=O)Nc1ccc(F)c(C(=O)c2c[nH]c3ncc(-c4ccc(Cl)cc4)cc23)c1F` the viability, T/C (compound 0.0316 µM) was 93.5% and 97.3% and 96.7%, the viability, T/C (compound 0.1 µM) was 80.9% and 85.4% and 97.5% and the viability, T/C (compound 0.316 µM) was 92.2% and 94.7% and 93%. The viability, T/C (compound 1 µM) was 90.7% and 79.6% and 82.2%, the viability, T/C (compound 3.16 µM) was 82.9% and 100% and 89.3% and the viability, T/C (compound 10 µM) was 64.4% and 59.1% and 42.5%. For the same compound, the IC50 (curve of compound) was > 10 µM and 8.34 µM.

In the case of `CCc1cc2c(N3CCc4c(cc(Cn5ccnc5)cc4-c4cn(C)nc4C(F)(F)F)C3=O)ccnc2c(OC)n1`, the viability, T/C (compound 0.0316 µM) is reported as 103% and 94.2% and 101%, the viability, T/C (compound 0.1 µM) is reported as 91.9% and 87.2% and 87.1% and the viability, T/C (compound 0.316 µM) is reported as 88.2% and 90.2% and 95.8%. For the same compound, the viability, T/C (compound 1 µM) was 84.1% and 101% and 107%, the viability, T/C (compound 3.16 µM) was 87.8% and 103% and 101% and the viability, T/C (compound 10 µM) was 83.4% and 104% and 91.2%. It also gave an IC50 (curve of compound) greater than 10 µM.

For `COc1cc(C2c3cc4c(cc3C(OC3OC5COC(C)OC5C(O)C3O)C3COC(=O)C23)OCO4)cc(OC)c1O` (stereo not drawn), the viability, T/C (compound 0.0316 µM) was 99.9% and 94.4% and 99.1%, the viability, T/C (compound 0.1 µM) was 111% and 100% and 118% and the viability, T/C (compound 0.316 µM) was 82.8% and 130% and 71.7%. The viability, T/C (compound 1 µM) was 48.1% and 89.2% and 45.2%, the viability, T/C (compound 3.16 µM) was 30.1% and 59.8% and 27.6% and the viability, T/C (compound 10 µM) was 14.3% and 30.9% and 11.9%. For the same compound, the IC50 (curve of compound) was 0.989 µM and 4.47 µM and 0.81 µM.

`O=C(c1cc(Cc2n[nH]c(=O)c3ccccc23)ccc1F)N1CCN(C(=O)C2CC2)CC1` was tested, and the viability, T/C (compound 0.0316 µM) was 92.4% and 106% and 120%, the viability, T/C (compound 0.1 µM) was 98.8% and 100% and 84.5% and the viability, T/C (compound 0.316 µM) was 103% and 102% and 101%. The viability, T/C (compound 1 µM) was 107% and 106% and 104%, the viability, T/C (compound 3.16 µM) was 110% and 111% and 128% and the viability, T/C (compound 10 µM) was 79.3% and 62% and 111%. The IC50 (curve of compound) was greater than 10 µM.
